Our source for the melting point values is a melting point compilation (Tetko et al.; mined from patent text by program, amines drawn as free bases though some values may be those of a salt).

The term melting point denotes the temperature of the solid-liquid transition. `Cc1nn(-c2ccccn2)c2[nH]c3ccccc3c(=O)c12` displayed a melting point of 199 to 200 °C.
In the case of `OC[C@H]1O[C@@H](n2cnc3c(N[C@@H]4CCN(c5ccc(C(F)(F)F)cn5)C4)ncnc32)[C@H](O)[C@@H]1O` it was 166 to 170 °C; in that of `O=[N+]([O-])C=C(NCCSCc1ncccc1Br)NCCSCc1ncccc1Br`, 122 to 123 °C.
In turn, `CC(C)(C)OC(=O)N1CCC[C@@H](Nc2ncc3c(n2)-c2ccccc2[C@@H](c2ccc(Cl)c(Cl)c2)C3)C1` yielded a melting point of 85 to 87 °C.
For `COc1cc(N2CCOCC2)ccc1Nc1nc(Nc2ccc3c(c2OC)CCCC(=O)N3C)ncc1Cl`, the melting point is 197 to 199 °C.
`O=C(c1cccs1)c1cnn2c(-c3cccc(-c4ccn(CC5CCC5)n4)c3)ccnc12` came in with a melting point of 60 °C.
`COc1cc([N+](=O)[O-])cc(OC(F)F)c1OC`: the melting point lay within 72 to 73 °C.
Turning to `CCCC1(CCC(C)=O)Cc2cc(CCC(=O)O)c(Cl)c(Cl)c2C1=O` (stereo not drawn), the melting point lay within 131 to 133 °C.
In the case of `CN1C(=O)[C@H](NC(=O)CCNc2ccccc2)N=C(c2ccccc2)c2ccccc21` it was 218 to 221 °C.
`CC(C)(C)c1cc(-n2nc3ccc(S(=O)(=O)c4ccccc4)cc3n2)c(O)c(C(C)(C)C)c1` gave a melting point of 170 to 172 °C.
In the case of `CCOC(=O)c1cc2c(=O)c3cc(C(C)=O)ccc3oc2nc1N` it was greater than 300 °C; in that of `N#Cc1c(C(=O)NC2CC2)cnn1-c1ccc(Cl)cc1`, 204 to 206 °C; in that of `COc1ncc(C(F)(F)F)cc1C=NO`, 98 to 104 °C.
In the case of `CCOC(=O)c1cn2c(C)c(C)nc2c(O)c1CCC(=O)c1ccccc1` it was 172 to 174 °C; in that of `CC(C)(C)Cn1c(=O)c(=O)[nH]c2cc(Cl)c([N+](=O)[O-])cc21`, 270 to 271 °C; in that of `CCCc1nc(S(C)=O)c(C(=O)OCC)n1Cc1cc2c(cc1Cl)OCO2` (stereo not drawn), 187 °C.
Next, `Oc1ccc2nc(-c3cccc4c(Br)c(O)ccc34)oc2c1`: 221 to 223 °C; `C=CCNC(=O)c1c([Si](C)(C)C)sc2ccccc12`: 72 to 75 °C.
Regarding `Cc1sc(S(N)(=O)=O)cc1[N+](=O)[O-]`, the melting point came to 120 °C.
`Oc1ccc(I)nc1Cl` had a melting point of 142 to 143 °C.
In the case of `CCc1cc2c(c(Cl)cc(=O)n2Cc2ccc(C(=O)O)cc2)c(CC)n1` it was 250 to 253 °C; in that of `O=C(Nc1ccc(-n2nc(C(F)(F)F)cc2C(F)(F)F)cc1)c1c(F)cccc1Cl`, 165 to 167 °C; in that of `COC1=CC=C2C(=CCC(C)(c3ccc(OC)cc3)C2CCCCCCO)C1` (stereo not drawn), 76 to 83 °C.
On to `CCOC(=O)c1cc(C(=O)c2ccccc2Cl)c(-n2c(C)nnc2CNC(=O)Nc2cccc(OC)c2)s1`, for which the melting point lay within 132 to 134 °C.
Next, `CCCn1c(CO)nc(C(C)C)c1Sc1cc(Cl)cc(Cl)c1`: 104 to 107 °C.
In the case of `CC(C(=O)O)c1ccc2cc(OCC=Cc3ccccc3)ccc2c1` (stereo not drawn) it was 175 to 177 °C.
Next, `Cn1c([N+](=O)[O-])cnc1-c1nnc2cccnn12`: 235 to 237 °C; `CCC(=CC(CNC(=O)c1cnccn1)=NO)C(C)[N+](=O)[O-]` (stereo not drawn): 120 to 121 °C; `O=C1CC2(Cc3cc4ccccc4n3C2)C(=O)N1` (stereo not drawn): 215 to 220 °C.
`Cc1nc(-n2ccc3c(O)cccc3c2=O)sc1C(=O)NCc1ccccc1` yielded a melting point of 218 to 221 °C.
Turning to `OC(=S)c1ccccc1-c1ccccc1`, the melting point is 178 to 180 °C.
The molecule `CCC(C(O)C(C)C(O)C(C)CCc1ccc(C)c(O)c1C(=O)O)C1OC(CC)(C2CCC(O)(CC)C(C)O2)CC1C` (stereo not drawn) came in with a melting point of 151 to 153 °C.
Take `Fc1ccc(-c2nn3c(c2-c2ccncc2)NCCC3)cc1`: the melting point fell in the range of 207 to 209 °C.
Next, `CCOC(=O)c1nnc(N(C)C)n1C`: 52 to 53 °C; `COC(=O)c1cccc(-c2nc(-c3cccc(C(F)(F)F)c3)cs2)c1`: 105 to 106 °C; `COc1ccc(CCNC(=O)[C@@H](O)CO)cc1OC1CCCC1`: 54 to 55 °C.
In the case of `CCOC(=O)c1cccc(Sc2nc(C)c(CC(=O)O)s2)n1` it was 140 to 142 °C.
Take `C=CC1CC2=CCCCC2C2CCC3(C)C(O)CCC3C12` (stereo not drawn): the melting point lay in the range of 117 to 121 °C.
Turning to `O=C(CCN1CCOCC1)Nc1cc(-c2nnc(SCc3cccc(F)c3)o2)ccn1`, the melting point lay within 149 to 150 °C.
The molecule `Cc1nc2c(O)c(CCC(=O)c3ccccc3OCc3ccccc3)c(C(=O)N(C)C)cc2n1C` registered a melting point of 193 to 194 °C.
Molecule `CC1(CF)C(=O)N(c2ccc(C#N)c(C(F)(F)F)c2)C(=O)N1CCF` (stereo not drawn) came in with a melting point of 137 to 138 °C.
The molecule `OC1CCN(Cc2ccc(Br)cc2)CC1N1CCC(c2ccccc2)CC1` (stereo not drawn) yielded a melting point of 159 to 161 °C.
Next, `COc1ccccc1OCC1SCCN1C(=S)CC(C)=O` (stereo not drawn): 89 to 91 °C; `N#CN=C(N)NCCCCNC(=O)C1(NC(=O)CCCC(=O)O)Cc2ccccc2C1`: 105 °C; `CCCc1c[nH]cc2c(=O)n(-c3ccc(OC)cc3)nc1-2`: 165 °C.
Next, `COC(=O)c1ccc2[nH]cc(C(=O)c3ccccc3)c2c1`: 271 to 273 °C; `CCn1c(=O)c2c(nc(/C=C/c3ccc(OC)cc3OC)n2C)n(CC)c1=O`: 196 to 197 °C; `COC(=O)c1cccc2c(C)c(C)oc12`: 54.5 to 55.5 °C.
Take `FC(F)(F)COc1ccnc(Oc2ccc(CCNc3ncnc4nccnc34)cc2)c1`: the melting point was 166 °C.
With `O=C(CC1CCc2ccccc2C1=O)c1ccccc1` (stereo not drawn), the melting point was in the range of 73 to 76 °C.
Take `COc1cccc(Oc2c(NS(=O)(=O)c3ccc(C(C)(C)C)cc3)ncnc2OCCOc2ncc(C(C)=O)cn2)c1`: the melting point was 142 to 144 °C.
`CCCCCCCCC(SCCCCCC)C(=O)Nc1c(OCC)ccc2ncccc12` (stereo not drawn): the melting point lay within 88 to 90 °C.
Next, `O=S(=O)(CCCCl)c1ccccc1`: 55 to 58 °C; `COc1ccc([N+](=O)[O-])c(OC2CCOC2=O)c1` (stereo not drawn): 109 to 110 °C.
For the molecule `Cc1ccc(S(=O)(=O)NCCOCCO)cc1`, the melting point lay within 35 to 38 °C.
In the case of `COc1cc(N2CCC(N3CCNCC3)CC2)ccc1Nc1ncc2ccc(-c3ccccc3OC)n2n1` it was 65 to 67 °C; in that of `COC(=O)c1cccc(NC(=O)Oc2ccc([N+](=O)[O-])cc2)c1`, 184 to 186 °C.
Next, `O=C(c1cc(C(F)(F)F)cc(C(F)(F)F)c1)N1CCN(C(=O)CNC2CCN(Cc3ccccc3)CC2)C(c2ccccc2)C1` (racemic): 65 to 67 °C; `O=C(NCCO)c1cccc(-c2cccc3nn(Cc4cccc(C(F)(F)F)c4)cc23)c1`: 136 to 137 °C; `NC(CCCl)C(=O)c1ccccc1` (stereo not drawn): 44 to 46 °C.
Next, `Cc1c(C)c(O)c(CN(C)C)c(C)c1O`: 103 to 108 °C; `Cn1c(COc2ccc(CC3SC(=O)NC3=O)cc2)nc2ncccc21` (stereo not drawn): 231 to 232 °C; `CCN(CC)C(=S)Oc1ccc2c(c1)Oc1ccccc1S2`: 121 to 123 °C.
`CCCC(=O)Nc1cc(S(=O)c2ccccc2)ccc1N(C(=N)NC(=O)OC)C(=O)OC` (stereo not drawn) registered a melting point of 134 °C.
In the case of `CCCc1cc(=O)oc2cc(OC(=O)C(C)(C)C)c3c(c12)OC(C)(C)C=C3` it was 65 to 68 °C; in that of `Cc1ccc(C)n1N(C)c1ccc(Cl)nn1`, 93 to 94.5 °C.
In the case of `CCOC(=O)c1ccc(-c2cc3c(NCc4cccc(Cl)c4)ncnc3[nH]2)cc1` it was 305 to 306 °C.
Regarding `CCOc1ccc(-c2nc(-c3ccc(SC(=O)N(C)C)c(C(=O)OC)c3)cs2)cc1OCC`, the melting point is 108 to 109 °C.
`CCC(=O)OCC(OC(=O)CC)c1nc2c(C(F)(F)F)cccc2c(O)c1C(=O)Nc1nccs1` (stereo not drawn) registered a melting point of 206 °C.
Molecule `Cn1c2ccccc2c2nc3c(CO)cccc3nc21` yielded a melting point of 191 to 194 °C.
In the case of `O=C(O)CCc1[nH]nc2c1CCC2` it was 157 to 159 °C; in that of `Cc1ccc(-c2ccc(-c3ccc(C)cc3)n2-c2ccc(O)cc2)cc1`, 221 to 222 °C.
Next, `CC(=O)c1cc(C(=O)c2ccc3ccccc3c2)c[nH]1`: 172 to 174 °C; `CC(C)(C)c1c(OCc2ccccc2)ccc2oc(C=O)cc12`: 136 °C; `O=C(CN1CCNCC1C(=O)CCCCCNO)Nc1nc2ccccc2s1` (stereo not drawn): 150 to 152 °C.
In the case of `N#CC1(CCCCCCCCCCCCC2(C#N)CC2)CC1` it was 45 to 46.9 °C.
Turning to `CC(C)Nc1cccnc1N1CCN(C(=O)c2ccc(C(=O)NC(CO)CO)cc2)CC1`, the melting point lay within 147 to 149 °C.
Next, `Cc1coc2c1C(=O)CC(c1ccccc1)C2` (stereo not drawn): 104 to 106 °C; `O=c1c(Br)c(OCc2ccccc2)ccn1CCc1ccsc1`: 134 °C.
In the case of `CCOCc1nc2c(N)nc(C)cc2n1CC(C)C` it was 72 to 74 °C.
On to `CC(C)(C)c1cc(C(C)(C)C)c2op(Cl)oc3c(C(C)(C)C)cc(C(C)(C)C)cc3c2c1`, for which the melting point is 183 to 186 °C.
In turn, `NC(=NCC(F)(F)F)Nc1ccnc(OCCCCO)n1.[H][H]` registered a melting point of 189 to 190 °C.
Next, `COCCNC(=O)c1c(O)c2cnc(-c3ccccc3)nc2n(CCOC)c1=O`: 150 to 154 °C; `Cn1ncc(C(=O)N2CCOCC2)c1C(=O)Nc1ccn2nc(-c3ccnc(F)c3)nc2c1`: greater than 280 °C; `CS(=O)(=O)c1cccc(-c2ccccc2[N+](=O)[O-])c1`: 124 to 125 °C.
On to `CC(=O)Nc1ccc(S(=O)(=O)c2cccc(Cl)c2)cc1`, for which the melting point lay in the range of 149 to 150 °C.
The molecule `CCCc1c(C(=O)C(C)C)c2ccc(C(=O)O)cc2n1Cc1ccccc1[N+](=O)[O-]` showed a melting point of 214 to 215 °C.
Next, `COC(=O)c1c(SCc2ccc(OC)cc2)nc(-c2ccccc2)n1Cc1cc2c(cc1Cl)OCO2`: 158 °C.
